Experimental data taken from publication PMC9181188 (International Journal of Molecular Sciences, 2022).
In brackets after ≈: the same amount, converted by molar mass. Like-named read-outs stand apart in the source and are kept apart here.

Tests used:
[1] = tested on: quinolone-susceptible clinical coagulase-negative staphylococci; assay: MIC, quinolone-susceptible clinical isolates as a group; type: cell-based; conditions: Staphylococcus epidermidis; five quinolone-susceptible isolates; read-out: MIC against quinolone-susceptible clinical isolates
[2] = tested on: S. epidermidis KR 4313 834/19; assay: MIC, clinical S. epidermidis strain; type: cell-based; conditions: Staphylococcus epidermidis, KR4313834/19, quinolone-susceptible, 18 h of treatment
[3] = tested on: standard staphylococci (S. aureus, S. epidermidis); assay: MIC, standard Gram-positive strains as a group; type: cell-based; conditions: Staphylococcus aureus; range over standard Gram-positive strains; read-out: MIC against standard staphylococci
[4] = tested on: S. epidermidis ATCC 35984; assay: MIC, twofold microdilution, standard strain; type: cell-based; conditions: Staphylococcus epidermidis, ATCC35984; 18 h of treatment; read-out: MIC S. epidermidis ATCC 35984
[5] = tested on: SW480 cells; assay: MTT assay, SW480; type: cell-based, human; conditions: for IC50: Homo sapiens, SW480, 72 h, human primary colon cancer, 72 h, MTT, mean ± SD; for SI SW480: SI = IC50 for normal cell line (HaCaT)/IC50 cancer cell line
[6] = tested on: M. tuberculosis Spec. 192 (Sensitive to Tuberculostatics); assay: MABA (microplate Alamar blue assay) MIC; type: cell-based; conditions: Mycobacterium tuberculosis, 336 h, read-out: MIC M. tuberculosis Spec. 192 (Sensitive to Tuberculostatics)
[7] = tested on: S. epidermidis T 5501 851/19; assay: MIC, clinical S. epidermidis strain; type: cell-based; conditions: Staphylococcus epidermidis, T5501851/19, read-out: MIC T 5501 851/19, quinolone-susceptible, 18 h of treatment
[8] = tested on: P. aeruginosa ATCC 27853; assay: MIC, twofold microdilution, standard strain; type: cell-based; conditions: Pseudomonas aeruginosa, ATCC27853; 18 h of treatment; read-out: MIC P. aeruginosa ATCC 27853
[9] = tested on: S. epidermidis KR 4358/2 840/19; assay: MIC, clinical S. epidermidis strain; type: cell-based; conditions: Staphylococcus epidermidis, KR4358/2840/19; clinical S. epidermidis, quinolone-susceptible, 18 h of treatment; read-out: MIC KR 4358/2 840/19
[10] = tested on: E. coli ATCC 25922; assay: MIC, twofold microdilution, standard strain; type: cell-based, Escherichia coli; conditions: for MIC: Escherichia coli, read-out: MIC E. coli ATCC 25922
[11] = tested on: S. epidermidis ATCC 12228; assay: MIC, twofold microdilution, standard strain; type: cell-based; conditions: Staphylococcus epidermidis, ATCC12228; 18 h of treatment; read-out: MIC S. epidermidis ATCC 12228
[12] = tested on: HaCaT cells; assay: MTT assay, HaCaT normal cells; type: cell-based; conditions: human immortal keratinocyte cell line, 72 h, mean ± SD
[13] = tested on: S. aureus ATCC 6538; assay: MIC, twofold microdilution, standard strain; type: cell-based; conditions: Staphylococcus aureus, ATCC6538; 18 h of treatment; read-out: MIC S. aureus ATCC 6538
[14] = tested on: S. aureus ATCC 25923; assay: MIC, twofold microdilution, standard strain; type: cell-based; conditions: Staphylococcus aureus, ATCC25923; 18 h of treatment; read-out: MIC S. aureus ATCC 25923
[15] = tested on: M. tuberculosis H37Rv; assay: MABA (microplate Alamar blue assay) MIC; type: cell-based; conditions: Mycobacterium tuberculosis, 336 h, read-out: MIC M. tuberculosis H37Rv
[16] = tested on: S. epidermidis T 5253 845/19; assay: MIC, clinical S. epidermidis strain; type: cell-based; conditions: Staphylococcus epidermidis, T5253845/19, quinolone-resistant, 18 h of treatment
[17] = tested on: S. aureus ATCC 29213; assay: MIC, twofold microdilution, standard strain; type: cell-based; conditions: Staphylococcus aureus, ATCC29213; 18 h of treatment; read-out: MIC S. aureus ATCC 29213
[18] = tested on: S. epidermidis T 5399 848/19; assay: MIC, clinical S. epidermidis strain; type: cell-based; conditions: Staphylococcus epidermidis, T5399848/19, quinolone-susceptible, 18 h of treatment
[19] = tested on: SW620 cells; assay: MTT assay, SW620; type: cell-based, human; conditions: for IC50: Homo sapiens, SW-620, 72 h, human metastatic colon cancer, 72 h, MTT, mean ± SD; for SI SW620: SI = IC50 for normal cell line (HaCaT)/IC50 cancer cell line
[20] = tested on: S. aureus NCTC 4163; assay: MIC, twofold microdilution, standard strain; type: cell-based; conditions: Staphylococcus aureus, NCTC4163; 18 h of treatment; read-out: MIC S. aureus NCTC 4163
[21] = tested on: S. epidermidis KR 4243 829/19; assay: MIC, clinical S. epidermidis strain; type: cell-based; conditions: Staphylococcus epidermidis, KR4243829/19, quinolone-susceptible, 18 h of treatment
[22] = tested on: S. epidermidis KR 4047 825/19; assay: MIC, clinical S. epidermidis strain; type: cell-based; conditions: Staphylococcus epidermidis, KR4047825/19, quinolone-resistant, 18 h of treatment
[23] = tested on: PC3 cells; assay: MTT assay, PC3; type: cell-based, human; conditions: for IC50: Homo sapiens, PC-3, 72 h, human metastatic prostate cancer, 72 h, MTT, mean ± SD; for SI PC3: SI = IC50 for normal cell line (HaCaT)/IC50 cancer cell line
[24] = biological target: T1, S. aureus topoisomerase IV (Staphylococcus aureus, UniProt P0C1S7+P0C1U9); assay: S. aureus topoisomerase IV decatenation assay; type: biochemical
T1 construct: purchased Inspiralis
Procedure: The assay was performed using S. aureus topoisomerase IV […] kit (Inspiralis). Kinetoplast DNA (kDNA) was the substrate for topoisomerase IV.

[25] = biological target: S. aureus DNA gyrase (Staphylococcus aureus, UniProt P0A0K8+P20831); assay: biochemical
Procedure: The assay was performed using S. aureus DNA Gyrase Supercoiling kit (Inspiralis). […] Samples were vortexed, centrifuged, and 20 µL of the aqueous phase of each sample was loaded onto a 1% agarose gel and left for 30 min prior to electrophoresis to allow diffusion of salt. Electrophoresis was conducted in TAE buffer for 3 h at 50 V. Gels were stained with ethidium bromide and visualized under UV light in a transilluminator (ChemiDoc MP, Bio Rad, Warsaw, Poland).

[26] = tested on: M. tuberculosis strains; assay: MABA MIC, mycobacterial strains as a group; type: cell-based; conditions: Mycobacterium tuberculosis, read-out: MIC antimycobacterial (strain not specified)

S. aureus DNA gyrase, sequence (P20831 whole entry): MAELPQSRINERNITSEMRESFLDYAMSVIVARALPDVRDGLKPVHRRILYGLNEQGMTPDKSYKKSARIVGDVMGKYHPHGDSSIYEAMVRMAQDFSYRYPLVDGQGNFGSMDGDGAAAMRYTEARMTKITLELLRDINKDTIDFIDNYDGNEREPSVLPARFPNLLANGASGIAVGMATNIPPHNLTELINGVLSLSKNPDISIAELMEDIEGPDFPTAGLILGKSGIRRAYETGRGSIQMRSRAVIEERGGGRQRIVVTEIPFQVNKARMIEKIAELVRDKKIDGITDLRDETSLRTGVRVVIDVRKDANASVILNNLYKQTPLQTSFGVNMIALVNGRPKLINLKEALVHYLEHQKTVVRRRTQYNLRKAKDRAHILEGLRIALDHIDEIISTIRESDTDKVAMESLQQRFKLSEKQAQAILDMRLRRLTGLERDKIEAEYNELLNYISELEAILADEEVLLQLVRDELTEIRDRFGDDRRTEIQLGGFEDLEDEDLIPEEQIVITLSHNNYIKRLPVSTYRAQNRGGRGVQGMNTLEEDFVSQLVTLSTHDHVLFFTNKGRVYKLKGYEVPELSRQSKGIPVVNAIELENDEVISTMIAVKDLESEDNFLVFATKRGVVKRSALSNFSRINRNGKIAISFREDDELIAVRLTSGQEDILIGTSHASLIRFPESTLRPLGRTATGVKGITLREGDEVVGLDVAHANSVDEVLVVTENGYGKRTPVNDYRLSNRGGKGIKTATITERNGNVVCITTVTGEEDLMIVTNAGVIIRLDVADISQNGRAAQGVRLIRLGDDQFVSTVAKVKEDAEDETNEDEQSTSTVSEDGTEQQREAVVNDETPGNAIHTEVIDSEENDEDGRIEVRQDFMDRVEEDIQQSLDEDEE
S. aureus DNA gyrase, sequence (P0A0K8 whole entry): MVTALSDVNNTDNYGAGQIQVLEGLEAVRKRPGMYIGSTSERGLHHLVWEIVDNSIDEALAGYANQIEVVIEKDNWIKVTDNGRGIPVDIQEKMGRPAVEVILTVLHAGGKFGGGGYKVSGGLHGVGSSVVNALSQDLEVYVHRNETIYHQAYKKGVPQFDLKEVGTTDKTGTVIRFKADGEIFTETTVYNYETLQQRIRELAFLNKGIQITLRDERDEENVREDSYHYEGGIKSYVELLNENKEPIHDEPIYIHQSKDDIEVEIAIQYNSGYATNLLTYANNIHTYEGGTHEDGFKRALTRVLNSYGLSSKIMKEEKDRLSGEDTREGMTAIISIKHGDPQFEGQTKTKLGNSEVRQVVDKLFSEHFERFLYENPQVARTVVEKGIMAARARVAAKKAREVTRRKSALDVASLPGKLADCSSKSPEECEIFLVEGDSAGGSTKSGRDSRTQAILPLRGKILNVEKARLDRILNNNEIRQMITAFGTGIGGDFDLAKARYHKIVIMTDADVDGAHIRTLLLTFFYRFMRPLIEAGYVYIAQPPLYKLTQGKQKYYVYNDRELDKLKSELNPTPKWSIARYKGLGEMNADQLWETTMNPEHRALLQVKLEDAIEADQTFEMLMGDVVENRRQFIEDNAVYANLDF
T1 sequence (P0C1U9 whole entry): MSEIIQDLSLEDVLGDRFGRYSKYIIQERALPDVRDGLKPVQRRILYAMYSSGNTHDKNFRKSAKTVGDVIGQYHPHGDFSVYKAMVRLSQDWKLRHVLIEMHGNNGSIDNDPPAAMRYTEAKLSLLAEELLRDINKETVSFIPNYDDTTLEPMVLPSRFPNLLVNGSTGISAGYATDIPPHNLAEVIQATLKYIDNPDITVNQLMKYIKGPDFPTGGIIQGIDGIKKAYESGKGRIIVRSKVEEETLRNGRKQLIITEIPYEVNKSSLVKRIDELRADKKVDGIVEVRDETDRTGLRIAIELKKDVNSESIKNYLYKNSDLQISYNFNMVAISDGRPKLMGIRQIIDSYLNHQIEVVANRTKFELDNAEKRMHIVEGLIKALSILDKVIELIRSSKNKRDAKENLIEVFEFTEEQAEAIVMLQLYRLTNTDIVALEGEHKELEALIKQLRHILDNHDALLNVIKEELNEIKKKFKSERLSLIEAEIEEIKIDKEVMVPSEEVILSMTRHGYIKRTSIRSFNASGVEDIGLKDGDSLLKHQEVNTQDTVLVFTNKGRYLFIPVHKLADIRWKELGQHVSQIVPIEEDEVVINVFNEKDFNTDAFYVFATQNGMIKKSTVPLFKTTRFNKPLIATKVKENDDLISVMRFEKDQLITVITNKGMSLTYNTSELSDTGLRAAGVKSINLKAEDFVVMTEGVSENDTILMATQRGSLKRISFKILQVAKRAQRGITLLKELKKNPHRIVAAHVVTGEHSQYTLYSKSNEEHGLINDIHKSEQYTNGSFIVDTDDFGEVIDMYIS
T1 sequence (P0C1S7 whole entry): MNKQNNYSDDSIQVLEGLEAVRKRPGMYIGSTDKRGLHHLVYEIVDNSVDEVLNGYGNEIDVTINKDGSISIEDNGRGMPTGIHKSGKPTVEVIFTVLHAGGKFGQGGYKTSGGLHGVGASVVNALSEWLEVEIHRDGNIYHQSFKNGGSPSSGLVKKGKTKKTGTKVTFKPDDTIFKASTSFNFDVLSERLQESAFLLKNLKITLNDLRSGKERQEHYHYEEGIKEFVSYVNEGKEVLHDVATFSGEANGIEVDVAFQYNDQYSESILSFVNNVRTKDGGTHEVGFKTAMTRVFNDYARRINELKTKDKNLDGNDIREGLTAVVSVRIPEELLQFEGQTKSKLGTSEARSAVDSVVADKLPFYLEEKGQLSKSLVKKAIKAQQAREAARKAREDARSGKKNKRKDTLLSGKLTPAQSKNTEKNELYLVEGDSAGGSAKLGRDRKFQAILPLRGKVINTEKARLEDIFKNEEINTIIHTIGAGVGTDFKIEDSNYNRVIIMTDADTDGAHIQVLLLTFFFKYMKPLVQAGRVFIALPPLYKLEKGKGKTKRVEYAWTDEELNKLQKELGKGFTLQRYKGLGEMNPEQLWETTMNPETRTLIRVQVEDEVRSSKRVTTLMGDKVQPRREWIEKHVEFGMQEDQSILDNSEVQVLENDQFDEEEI

| Compound | MIC [2] [µg/mL] | MIC [3] [µg/mL] | MIC [4] [µg/mL] | IC50 [5] [µM] | SI SW480 [5] | MIC [7] [µg/mL] | MIC [8] [µg/mL] | MIC [9] [µg/mL] | MIC [11] [µg/mL] | IC50 [12] [µM] | MIC [13] [µg/mL] | MIC [14] [µg/mL] | MIC [16] [µg/mL] | MIC [17] [µg/mL] | MIC [18] [µg/mL] | IC50 [19] [µM] | SI SW620 [19] | MIC [20] [µg/mL] | MIC [21] [µg/mL] | MIC [22] [µg/mL] | further results |
| --- | --- | --- | --- | --- | --- | --- | --- | --- | --- | --- | --- | --- | --- | --- | --- | --- | --- | --- | --- | --- | --- |
| CCCCC/C=C\C/C=C\C/C=C\C/C=C\CCCC(=O)N1CCCC2CN(c3c(F)cc4c(=O)c(C(=O)O)cn(C5CC5)c4c3OC)CC21 (centres unmarked) [Compound 13m, 1-Cyclopropyl-6-fluoro-7-{1-(5Z,8Z,11Z,14Z)-icosa-5,8,11,14-tetraenoyl-octahydro-pyrrolo[3,4-b]pyridin-6-yl}-8-methoxy-4-oxo-1,4-dihydro-quinoline-3-carboxylic acid] | 8 (≈ 11.6 µM) | 8 to 32 (≈ 11.6 to 46.5 µM) | 16 (≈ 23.3 µM) | 32.3 ± 4.1 | 2.9 | 8 (≈ 11.6 µM) | > 512 | 8 (≈ 11.6 µM) | 16 (≈ 23.3 µM) | 93.3 ± 2.8 | 16 (≈ 23.3 µM) | 16 (≈ 23.3 µM) | 512 (≈ 744 µM) | 16 (≈ 23.3 µM) | 4 (≈ 5.81 µM) | 39.4 ± 4.1 | 2.4 | 16 (≈ 23.3 µM) | 4 (≈ 5.81 µM) | 256 (≈ 372 µM) | MIC [1]: 2 to 8 µg/mL (≈ 2.91 to 11.6 µM); MIC ([6]; 2 weeks of treatment): 4 µg/mL (≈ 5.81 µM); MIC E. coli ATCC 25922 ([10]; 18 h of treatment): 2 to 16 µg/mL; MIC ([10]; ATCC25922, 18 h of treatment): 16 µg/mL (≈ 23.3 µM); MIC ([15]; 2 weeks of treatment): 4 µg/mL (≈ 5.81 µM); IC50 [23]: 28.3 ± 2.8 µM; SI PC3 [23]: 3.3 |
| COc1c(N2CC3CCCN(C(=O)/C=C(\C)CCC=C(C)C)C3C2)c(F)cc2c(=O)c(C(=O)O)cn(C3CC3)c12 (centres unmarked) [Compound 3m, 1-Cyclopropyl-7-{1-(2E)-(3,7-dimethyl-octa-2,6-dienoyl)-octahydro-pyrrolo[3,4-b]pyridin-6-yl}-6-fluoro-8-methoxy-4-oxo-1,4-dihydro-quinoline-3-carboxylic acid] | 16 (≈ 29 µM) | 8 to 32 (≈ 14.5 to 58 µM) | 8 (≈ 14.5 µM) | 26.7 ± 1.4 | 3.0 | 16 (≈ 29 µM) | > 64 | 8 (≈ 14.5 µM) | 16 (≈ 29 µM) | 81.2 ± 2.6 | 8 (≈ 14.5 µM) | 8 (≈ 14.5 µM) | 8 (≈ 14.5 µM) | 8 (≈ 14.5 µM) | 8 (≈ 14.5 µM) | 38.2 ± 4.1 | 2.1 | 8 (≈ 14.5 µM) | 8 (≈ 14.5 µM) | 16 (≈ 29 µM) | MIC [6]: 128 µg/mL (≈ 232 µM); IC50 [24]: > 116 µM; MIC ([10]; ATCC25922, 18 h): 128 µg/mL (≈ 232 µM); MIC [15]: 128 µg/mL (≈ 232 µM); IC50 [25]: > 116 µM; MIC [26]: ≥ 128 µg/mL; IC50 [23]: 23.5 ± 4.7 µM; SI PC3 [23]: 3.5 |
| CCCCC/C=C\C/C=C\C/C=C\CCCCC(=O)N1CCCC2CN(c3c(F)cc4c(=O)c(C(=O)O)cn(C5CC5)c4c3OC)CC21 (centres unmarked) [Compound 12m, 1-Cyclopropyl-6-fluoro-8-methoxy-7-{1-(6Z,9Z,12Z)-octadeca-6,9,12-trienoyl-octahydro-pyrrolo[3,4-b]pyridin-6-yl}-4-oxo-1,4-dihydro-quinoline-3-carboxylic acid] | 256 (≈ 387 µM) | > 32 | 32 (≈ 48.3 µM) | 16.8 ± 2.3 | 5.3 | 32 (≈ 48.3 µM) | > 512 | 512 (≈ 774 µM) | 64 (≈ 96.7 µM) | 88.7 ± 3.3 | 64 (≈ 96.7 µM) | 64 (≈ 96.7 µM) | 512 (≈ 774 µM) | 64 (≈ 96.7 µM) | 32 (≈ 48.3 µM) | 18.3 ± 3.2 | 4.8 | 64 (≈ 96.7 µM) | 32 (≈ 48.3 µM) | 256 (≈ 387 µM) | MIC ([6]; 2 weeks of treatment): 64 µg/mL (≈ 96.7 µM); MIC ([10]; ATCC25922, 18 h of treatment): 128 µg/mL (≈ 193 µM); MIC ([15]; 2 weeks of treatment): 64 µg/mL (≈ 96.7 µM); MIC ([26]; summary over strains): 64 µg/mL (≈ 96.7 µM); IC50 [23]: 14.7 ± 2.3 µM; SI PC3 [23]: 6.0 |
| CC/C=C\C/C=C\C/C=C\CCCCCCCC(=O)N1CCCC2CN(c3c(F)cc4c(=O)c(C(=O)O)cn(C5CC5)c4c3OC)CC21 (centres unmarked) [Compound 6m, 1-Cyclopropyl-6-fluoro-8-methoxy-7-{1-(9Z,12Z,15Z)-octadeca-9,12,15-trienoyl-octahydro-pyrrolo[3,4-b]pyridin-6-yl}-4-oxo-1,4-dihydro-quinoline-3-carboxylic acid] | 64 (≈ 96.7 µM) | 8 to 32 (≈ 12.1 to 48.3 µM) | 32 (≈ 48.3 µM) | 16.7 ± 3.1 | 5.8 | 128 (≈ 193 µM) | > 512 | 64 (≈ 96.7 µM) | 32 (≈ 48.3 µM) | 96.6 ± 5.5 | 16 (≈ 24.2 µM) | 32 (≈ 48.3 µM) | 256 (≈ 387 µM) | 16 (≈ 24.2 µM) | 32 (≈ 48.3 µM) | 15.6 ± 2.6 | 6.2 | 16 (≈ 24.2 µM) | 64 (≈ 96.7 µM) | 256 (≈ 387 µM) | MIC ([6]; 2 weeks of treatment): 128 µg/mL (≈ 193 µM); MIC ([10]; ATCC25922, 18 h): 256 µg/mL (≈ 387 µM); MIC [15]: 256 µg/mL (≈ 387 µM); MIC ([26]; summary over strains): ≥ 128 µg/mL; IC50 [23]: 14.4 ± 2.4 µM; SI PC3 [23]: 6.7 |
